Assay results from patent US20160031937A1, “NEURAL REGENERATION PEPTIDES AND USES THEREFOR” (CURONZ HOLDINGS COMPANY LIMITED, priority 2013, published 2016).
Square brackets hold non-standard residues; d marks the D form. Ends that are not written are not given here. Aib = CC(C)(N)C(=O)O

Legend:
Assay type in all cases: cell-based
[1] = test system: human W9-hESCs; assay: H2O2 induced oxidative stress injury, LDH detected cell death; conditions: for cell death reduced by (LDH): 50 μM H2O2, first 4 hours, corrected for basal injury; for reduced LDH release, net effect at 24 hours: H2O2 injury; for reduction of LDH detected cell death: between removal of H2O2 at 4 hours and 24 hours; for reduction of LDH release, net effect at 24 hours: H2O2
Experimental: Experiments with human embryonic stem cells (hESC) were carried out in accordance with the guidelines and regulations of the NHMRC and with the approval of the Austin Health Human Research Ethics Committee (Approval number H2008/03194), and University of Melbourne Human Research Ethics Committee (Approval number 0605017). H9 (WA-09, WiCell) cell lines were grown as previously described (Dottori & Pera, 2007).
Briefly, hESC were cultured on mitomycin-C treated mouse embryonic fibroblasts (MEFs) in hESC medium consisting of high-glucose Dulbecco's Modified Eagle Medium (DMEM) without sodium pyruvate, supplemented with 1% insulin/transferrin/selenium, 0.1 mM β-mercaptoethanol, 1% nonessential amino acids (NEAA), 2 mM glutamine, 25 U/ml penicillin, 25 μg/ml streptomycin (all from Invitrogen) and 20% fetal calf serum (FCS) (Hyclone).
Alternatively, hESC were cultured on mitomycin-C treated human foreskin fibroblasts (HFF; ATCC, CRL-2097) in KSR media consisting of DMEM/nutrient mixture F-12, supplemented with 0.1 mM […], 1% nonessential amino acids (NEAA), 2 mM glutamine, 25 U/ml penicillin, 25 μg/ml streptomycin and 20% knockout serum replacement (all from Invitrogen).
All cells were cultured at 37° C. in 5% CO2 with 100% humidity. Colonies were mechanically dissected every 7 days (subcultivated or passaged) and transferred to freshly prepared MEFs or HFFs. Media was changed every second day.
(§1) Neuronal differentiation was achieved using the noggin induction method described for mouse neurospheres as adapted by Dottori for human neurospheres (Dottori & Pera, 2007). The colonies were maintained at 37° C., with 5% CO2 in hESC medium supplemented with 500 ng/ml of Noggin for 14 days while replacing Noggin every other day.
At this point, the cells were washed with PBS and the colonies were again mechanically dissociated, but this time the central (differentiated) part of the colony was also cut into smaller pieces using a 26-gauge needle. The pieces were transferred to individual wells in a low adherent 96-well plate containing Neurobasal®A (NBM) (Invitrogen) supplemented with 1× X B-27® (Invitrogen) and 1× N-2 (Invitrogen) 20 ng/ml human recombinant EGF and 20 ng/ml human recombinant bFGF (Pharmacia). Media was changed every 2 to 3 days to allow neurosphere formation over 2 weeks.
In order to facilitate neuronal differentiation, neurospheres were again separated into smaller pieces under a dissection microscope, and three to four pieces were transferred to each well of a 96-well plate. Prior to this transfer, the plate was pre-coated with poly-D-lysine (10 μg/ml in PBS), washed in PBS, recoated with mouse laminin (5 μg/ml in PBS), and washed again. The cells were then grown for 11 days (with media changed every two days) in NBM lacking growth factors prior to induction of injury and assessment of hypothermia.
On the day of experiments, the medium was changed to NBM+N2 containing a B27 preparation lacking the usual antioxidants (Invitrogen; 10889-038) to eliminate their confounding effects (NBM-AO).
(§2) The media was replaced with fresh NBM-AO and the cells were incubated for a further 20 hours containing drug, before again measuring LDH. Oxidative stress was induced by adding 50 μM fresh H2O2 (Sigma, H1009) to the growth factor negative NBM on initiation of the experiment with continued culture for 4 hours when LDH was measured and NBM-AO without H2O2 was returned to the culture which was maintained for a further 20 hours before again measuring LDH. […]
Measurement of lactate dehydrogenase activity (a marker of total cell death) and TUNEL staining (a marker of apoptotic death) was performed according to the kit manufacturer's instructions (Roche, 1164479001 and 11684795910 respectively).
Within experiments, each comparison was performed at least in triplicate and the mean of these values taken forward into group comparisons. […]

[2] = test system: human W9-hESCs; assay: TUNEL staining for apoptotic cell death after H2O2 injury; conditions: H2O2 oxidative stress, 24 hours; 100 fM NRP2945
Experimental: as §1
At this point, the cells were washed with PBS and the colonies were again mechanically dissociated, but this time the central (differentiated) part of the colony was also cut into smaller pieces using a 26-gauge needle. […]
as §2
Tunnel positive cells, wells were imaged and the images re-coded independently before quantitation. No additional blinding was performed for the machine read LDH assay process.

[3] = test system: endogenous NRP gene expression; assay: Endogenous NRP gene expression in human embryonic W9 stem cells; conditions: 100 fM NRP2945

Substance: Gly Arg Arg Ala Ala Pro Gly Arg Aib Gly Gly (GRRAAPGR[Aib]GG) [NRP2945, synthetic 11-mer peptidomimetic optimized for stability and pharmacokinetics]
- cell death reduced by (LDH) ([1]; 1 pM NRP2945 at injury induction): 35%
- cell death reduced by (LDH) ([1]; 1 fM NRP2945 at injury induction): 23.2%
- cell death reduced by (LDH) ([1]; 10 fM NRP2945 at injury induction): 40%
- cell death reduced by (LDH) ([1]; 100 fM NRP2945 at injury induction): 44%
- reduced LDH release, net effect at 24 hours ([1]; 1 pM NRP2945): 26%
- reduced LDH release, net effect at 24 hours ([1]; 1 fM NRP2945): 27%
- reduced LDH release, net effect at 24 hours ([1]; 10 fM NRP2945): 48%
- reduced LDH release, net effect at 24 hours ([1]; 100 fM NRP2945): 47%
- reduction of LDH detected cell death ([1]; 10 fM NRP2945): 70%
- reduction of LDH detected cell death ([1]; 100 fM NRP2945): 57%
- reduction of LDH release, net effect at 24 hours ([1]; repeat experiment, 10 fM NRP2945 added at 0 hours): 48%
- reduction of LDH release, net effect at 24 hours ([1]; repeat experiment, 10 fM NRP2945 added at 1 hour): 35%
- reduction of LDH release, net effect at 24 hours ([1]; repeat experiment, 10 fM NRP2945 added at 3 hours (p≦0.124)): 23%
- reduction of LDH release, net effect at 24 hours ([1]; repeat experiment, 100 fM NRP2945 added at 0 hours): 41%
- reduction of LDH release, net effect at 24 hours ([1]; repeat experiment, 100 fM NRP2945 added at 1 hour): 39%
- reduction of LDH release, net effect at 24 hours ([1]; repeat experiment, 100 fM NRP2945 added at 3 hours): 27%
- reduction in cell death (LDH) ([1]; repeat experiment, first 4 hours of H2O2 injury, 10 fM NRP2945 added at 0 hours): 40%
- reduction in cell death (LDH) ([1]; repeat experiment, first 4 hours of H2O2 injury, 10 fM NRP2945 administered one hour after injury induction): 35%
- reduction in cell death (LDH) ([1]; repeat experiment, first 4 hours of H2O2 injury, 100 fM NRP2945 added at 0 hours): 37%
- reduction in cell death (LDH) ([1]; repeat experiment, first 4 hours of H2O2 injury, 100 fM NRP2945 administered one hour after injury induction): 33%
- effect on cell death (LDH) ([1]; repeat experiment, first 4 hours of H2O2 injury, NRP2945 added 3 hours after injury induction (1 hour exposure)): no significant beneficial effect
- cells spared from apoptosis (TUNEL) [2]: 56.2%
- time to stimulated endogenous NRP gene expression after administration [3]: 5 to 10 min
